The values below come from ChEMBL document CHEMBL4396974, “Synthesis and evaluation of a novel quinoline-triazole analogs for antitubercular properties via molecular hybridization approach” (Bioorg Med Chem Lett, 2019).

Conditions in all cases: read-out: INH
A short description of data set [1]: Cytotoxicity against human HEK293 cells at 10 uM measured after 48 hrs by sulforhodamine B assay relative to control. Type of data set: cell-based. In general terms: In SRB staining, fixed cells bind dye roughly in proportion to their protein.
Data set [2] can be described thus: Cytotoxicity against human PANC1 cells at 10 uM measured after 48 hrs by sulforhodamine B assay relative to control. Type of data set: cell-based, PANC-1.
The nature of data set [3]: Cytotoxicity against human SKOV3 cells at 10 uM measured after 48 hrs by sulforhodamine B assay relative to control. The format is cell-based, SK-OV-3.
Data set [4] in a line: Cytotoxicity against human PC3 cells at 10 uM measured after 48 hrs by sulforhodamine B assay relative to control. The format is cell-based, PC-3.
Data set [5] is described as follows: Cytotoxicity against human HeLa cells at 10 uM measured after 48 hrs by sulforhodamine B assay relative to control. Type of data set: cell-based.
Data set [6] in a line: Cytotoxicity against human PANC1 cells at 2 uM measured after 48 hrs by sulforhodamine B assay relative to control. The format is cell-based, PANC-1.
Data set [7] in a line: Cytotoxicity against human SKOV3 cells at 2 uM measured after 48 hrs by sulforhodamine B assay relative to control. The format is cell-based, SK-OV-3.
Data set [8] is described as follows: Cytotoxicity against human HeLa cells at 2 uM measured after 48 hrs by sulforhodamine B assay relative to control. The format is cell-based.
A short description of data set [9]: Cytotoxicity against human HEK293 cells at 2 uM measured after 48 hrs by sulforhodamine B assay relative to control. The format is cell-based.
Data set [10] is described as follows: Cytotoxicity against human PC3 cells at 2 uM measured after 48 hrs by sulforhodamine B assay relative to control. Type of data set: cell-based, PC-3.

As to `COc1nc2ccc(Br)cc2cc1C(c1ccccc1)n1cc(-c2ccc(Br)cc2)nn1` (stereo not given), the cytotoxicity at 48 h, 10 µM in data set [1] turned out to be 6.28%; in [2], 10.4%; in [3] it was 13.4%; in data set [4], 7.43%; in data set [5] it was 6.92%.
Consider `CCCCCCc1cn(C(c2ccccc2)c2cc3cc(Br)ccc3nc2OC)nn1` (stereo not given), for which the cytotoxicity at 48 h, 10 µM was -3.17% in [1]; 6.08% in data set [2]; 7.17% in data set [3]; 2.32% in data set [4]; -0.97% in data set [5].
In the same order, the values of `COc1nc2ccc(Br)cc2cc1C(c1ccccc1)n1cc(-c2ccc(F)cc2)nn1` (stereo not given) are 4.04%, 14.9%, 14.3%, 16.4% and 4.27%.
On to `COc1nc2ccc(Br)cc2cc1C(c1ccccc1)n1cc(-c2ccccc2)nn1` (stereo not given), for which the cytotoxicity at 48 h, 10 µM in data set [1] was determined as 8.25%; in data set [2] it was 30.1%; in [3], 13.7%; in [4], 5.97%; in [5], 13.9%.
For `COc1nc2ccc(Br)cc2cc1C(c1ccccc1)n1cc(CO)nn1` (stereo not given), in that order: 11.5%, 15%, 3.23%, 4.65% and 0.25%.
For `CCCCCc1cn(C(c2ccccc2)c2cc3cc(Br)ccc3nc2OC)nn1` (stereo not given), in that order: -2%, 5.07%, 10.5%, 11.4% and -9.81%.
For `COc1nc2ccc(Br)cc2cc1C(c1ccccc1)n1cc(-c2ccc(OC(F)(F)F)cc2)nn1` (stereo not given), in that order: 5.8%, 11.7%, 14.8%, 21.6% and -2.24%.
As to `CCCCCCCc1cn(C(c2ccccc2)c2cc3cc(Br)ccc3nc2OC)nn1` (stereo not given), the cytotoxicity at 48 h, 10 µM was 0.17% in data set [1]; 16.6% in data set [2]; 10.5% in data set [3]; 4.42% in data set [4]; 9.7% in [5].
For `CCCc1cn(C(c2ccccc2)c2cc3cc(Br)ccc3nc2OC)nn1` (stereo not given), in that order: 0.85%, 11.3%, 11.2%, 8.3% and -2.25%.
For `COc1nc2ccc(Br)cc2cc1C(c1ccccc1)n1cc(-c2cccc(F)c2)nn1` (stereo not given), in that order: 6.84%, 15.5%, 12.7%, 14.6% and 9.04%.
For `CCOC(=O)c1cn(C(c2ccccc2)c2cc3cc(Br)ccc3nc2OC)nn1` (stereo not given), the cytotoxicity at 48 h, 10 µM is 2% in data set [1]; 15.4% in data set [2]; 2.01% in data set [3]; 16.1% in [4]; -3.67% in [5].
On to `CCCCCCCCc1cn(C(c2ccccc2)c2cc3cc(Br)ccc3nc2OC)nn1` (stereo not given), for which the cytotoxicity at 48 h, 10 µM turned out to be 14.6% in data set [1]; 12.1% in data set [2]; 2.06% in data set [3]; 2.27% in data set [4]; 0.1% in [5].
In the same order, the values of `COc1nc2ccc(Br)cc2cc1C(c1ccccc1)n1cc(CCO)nn1` (stereo not given) are 4.54%, 19.8%, 8.46%, 15.5% and 0.85%.
In the same order, the values of `COc1nc2ccc(Br)cc2cc1C(c1ccccc1)n1cc(CCCO)nn1` (stereo not given) are 27.4%, 25.5%, 13.8%, 14.7% and 11.3%.
In the same order, the values of `CCCCc1cn(C(c2ccccc2)c2cc3cc(Br)ccc3nc2OC)nn1` (stereo not given) are -3.47%, 5.46%, 11.1%, 5.54% and -2.87%.
Turning to `COc1cccc2c1C(=O)c1c(O)c3c(c(O)c1C2=O)C[C@@](O)(C(=O)CO)C[C@@H]3O[C@H]1C[C@H](N)[C@H](O)[C@H](C)O1` [DOXORUBICIN], the cytotoxicity at 48 h, 2 µM in data set [6] is 96.1%; in [7] it was 83.3%; in [8] it was 74.1%; in [9], 75.6%; in data set [10], 86.7%.
Regarding `COc1nc2ccc(Br)cc2cc1C(c1ccccc1)n1cc(-c2ccccc2C(F)(F)F)nn1` (stereo not given), the cytotoxicity at 48 h, 10 µM in data set [1] was 14.3%; in data set [2] it was 11.4%; in data set [3], 9.55%; in data set [4], 17.4%; in [5] it was -1.3%.
In the same order, the values of `COc1nc2ccc(Br)cc2cc1C(c1ccccc1)n1cc(-c2ccccc2F)nn1` (stereo not given) are 3.97%, 14.7%, 7.33%, 13.4% and 14.1%.
In the same order, the values of `COc1nc2ccc(Br)cc2cc1C(c1ccccc1)n1cc(CCCCCO)nn1` (stereo not given) are 7.96%, 19.6%, 8.69%, 12.9% and 1.08%.
As to `COc1nc2ccc(Br)cc2cc1C(c1ccccc1)n1cc(C2CC2)nn1` (stereo not given), the cytotoxicity at 48 h, 10 µM was 8.22% in data set [1]; 21.8% in [2]; 3.52% in [3]; 22.6% in data set [4]; -5.84% in [5].
